pIC50: −log10 of the molar value. Where two headings read alike, the source gives them in different places.
Target: T1, Chk1 (Homo sapiens, UniProt O14757)
T1 construct: purchased Upstate Biotechnology
T1 sequence (O14757 1-476): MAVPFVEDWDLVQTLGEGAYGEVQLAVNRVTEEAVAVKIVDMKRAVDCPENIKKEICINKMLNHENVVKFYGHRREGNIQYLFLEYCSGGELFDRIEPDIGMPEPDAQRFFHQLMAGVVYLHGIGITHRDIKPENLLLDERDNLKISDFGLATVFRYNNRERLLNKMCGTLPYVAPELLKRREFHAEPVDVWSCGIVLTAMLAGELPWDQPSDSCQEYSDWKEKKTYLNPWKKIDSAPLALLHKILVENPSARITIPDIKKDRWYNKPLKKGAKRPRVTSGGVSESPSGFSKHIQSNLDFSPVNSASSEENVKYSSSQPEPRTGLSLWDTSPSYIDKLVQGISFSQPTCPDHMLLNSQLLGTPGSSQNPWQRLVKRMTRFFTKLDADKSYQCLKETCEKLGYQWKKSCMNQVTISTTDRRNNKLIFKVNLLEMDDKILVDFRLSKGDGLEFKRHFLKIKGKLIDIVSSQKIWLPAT
Experiment: Chk1 kinase assay: incorporation of γ-33P ATP into immobilized myelin basic protein
Type: biochemical
Conditions: read-out: Chk1 IC50
Summary of the method: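 Chk1 (10 nM) or Chk2 (20 nM) phosphorylated plate-immobilized myelin basic protein for 1 h at room temperature in Hepes pH 7.6 buffer with MgCl2, DTT, 1% DMSO, γ-33P ATP plus 10 μM (Chk1) or 30 μM (Chk2) unlabeled ATP. Bound radioactivity counted by scintillation; IC50 determined, Ki derivable from IC50.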

[1] = Table 11, Chk1 only, class symbols A-D

Row | Compound | pIC50 (Table 11, Chk1 only) | further results
1 | CN/N=C(\C)c1nc(-c2cccc(C(=O)NCc3ccccc3)c2)cnc1N [Example 638, 3-{5-amino-6-[(1E)-N-methylethanehydrazonoyl]pyrazin-2-yl}-N-(phenylmethyl)benzamide] | ≤ 5.00 | 
2 | Nc1ncc(-c2cccc(CN[C@H]3CCc4ccccc43)c2)nc1C(=O)N1CCCC1 [Example 549, 5-(3-{[(1S)-2,3-dihydro-1H-inden-1-ylamino]methyl}phenyl)-3-(pyrrolidin-1-ylcarbonyl)pyrazin-2-amine] | 5.00 to 6.00 | 
3 | Nc1ncc(-c2cccc(NC(=O)Cc3cc(C(F)(F)F)cc(C(F)(F)F)c3)c2)nc1C(=O)N[C@H]1CCCNC1 [Example 913, 3-amino-6-[3-({[3,5-bis(trifluoromethyl)phenyl]acetyl}amino)phenyl]-N-[(3S)-piperidin-3-yl]pyrazine-2-carboxamide] |  | pIC50 [1]: > 7.30
4 | CN(C)c1ccc(C(=O)NCCCNC(=O)c2nc(-c3cccc(C(=O)NCc4ccccc4)c3)cnc2N)cc1 [Example 684, 3-amino-N-[3-({[4-(dimethylamino)phenyl]carbonyl}amino)propyl]-6-(3-{[(phenylmethyl)amino]carbonyl}phenyl)pyrazine-2-carboxamide] | ≤ 5.00 | 
5 | CNC(=O)c1nc(-c2cccc(OC)c2)cnc1N [Example 60, 3-amino-N-methyl-6-[3-(methyloxy)phenyl]pyrazine-2-carboxamide] |  | pIC50: 5.00 to 6.00
6 | CNC(=O)c1nc(-c2ccc3[nH]ccc3c2)cnc1N [Example 267, 3-amino-6-(1H-indol-5-yl)-N-methylpyrazine-2-carboxamide] |  | pIC50: 6.00 to 7.30
7 | Nc1ncc(-c2cccc(C(=O)N[C@H]3CCc4ccccc43)c2)nc1-c1nnc([C@H]2CCCNC2)[nH]1 [Example 755, 3-(5-amino-6-{5-[(3S)-piperidin-3-yl]-4H-1,2,4-triazol-3-yl}pyrazin-2-yl)-N-[(1S)-2,3-dihydro-1H-inden-1-yl]benzamide] | > 7.30 | 
8 | Nc1ncc(-c2cccc(C(=O)NCc3ccccc3)c2)nc1C(=O)N1CCOCC1 [Example 566, 3-[5-amino-6-(morpholin-4-ylcarbonyl)pyrazin-2-yl]-N-(phenylmethyl)benzamide] | 5.00 to 6.00 | 
9 | CC(C)(C)OC(=O)NCCCNC(=O)c1nc(-c2cccc(C(=O)NCc3ccccc3)c2)cnc1N [Example 612, 1,1-dimethylethyl [3-({[3-amino-6-(3-{[(phenylmethyl)amino]carbonyl}phenyl)pyrazin-2-yl]carbonyl}amino)propyl]carbamate] | ≤ 5.00 | 
10 | Nc1ncc(-c2cccc(CN[C@H]3CCc4ccccc43)c2)nc1C(=O)NCCO [Example 547, 3-amino-6-(3-{[(1S)-2,3-dihydro-1H-inden-1-ylamino]methyl}phenyl)-N-(2-hydroxyethyl)pyrazine-2-carboxamide] | 6.00 to 7.30 | 
11 | CNC(=O)c1nc(-c2cccc(CNc3cccc4ccccc34)c2)cnc1N [Example 448, 3-amino-N-methyl-6-{3-[(naphthalen-1-ylamino)methyl]phenyl}pyrazine-2-carboxamide] | 6.00 to 7.30 | 
12 | Nc1ncc(-c2cccc(NC(=O)Cc3ccc(F)cc3F)c2)nc1C(=O)N[C@H]1CCCNC1 [Example 897, 3-amino-6-(3-{[(2,4-difluorophenyl)acetyl]amino}phenyl)-N-[(3S)-piperidin-3-yl]pyrazine-2-carboxamide] |  | pIC50 [1]: > 7.30
13 | NC(=O)c1nc(-c2cccc(C(=O)NCc3ccccc3)c2)cnc1N [Example 667, 3-amino-6-(3-{[(phenylmethyl)amino]carbonyl}phenyl)pyrazine-2-carboxamide] | 6.00 to 7.30 | 
14 | CNC(=O)c1nc(-c2cccc(C(=O)NCc3ccccc3-c3cccnc3)c2)cnc1N [Example 391, 3-amino-N-methyl-6-[3-({[(2-pyridin-3-ylphenyl)methyl]amino}carbonyl)phenyl]pyrazine-2-carboxamide] |  | pIC50: 6.00 to 7.30
15 | CNC(=O)c1nc(-c2cccc(Cn3ccnc3)c2)cnc1N [Example 504, 3-amino-6-[3-(1H-imidazol-1-ylmethyl)phenyl]-N-methylpyrazine-2-carboxamide] | 6.00 to 7.30 | 
16 | Nc1ncc(-c2cccc(C(=O)N[C@@H]3c4ccccc4C[C@@H]3O)c2)nc1C(=O)N[C@H]1CCCNC1 [Example 807, 3-amino-6-[3-({[(1R,2S)-2-hydroxy-2,3-dihydro-1H-inden-1-yl]amino}carbonyl)phenyl]-N-[(3S)-piperidin-3-yl]pyrazine-2-carboxamide] |  | pIC50 [1]: > 7.30
17 | CSc1ccc(CNC(=O)c2cccc(-c3cnc(N)c(C(=O)N[C@H]4CCN(C(=O)OC(C)(C)C)C4)n3)c2)cc1 [Example 741, 1,1-dimethylethyl (3S)-3-{[(3-amino-6-{3-[({[4-(methylthio)phenyl]methyl}amino)carbonyl]phenyl}pyrazin-2-yl)carbonyl]amino}pyrrolidine-1-carboxylate] | 5.00 to 6.00 | 
18 | CNC(=O)c1nc(-c2cccc(CN[C@H]3CCc4c(F)cccc43)c2)cnc1N [Example 482, 3-amino-6-[3-({[(1S)-4-fluoro-2,3-dihydro-1H-inden-1-yl]amino}methyl)phenyl]-N-methylpyrazine-2-carboxamide] | > 7.30 | 
19 | Nc1ncc(-c2cccc(CNS(=O)(=O)c3ccsc3)c2)nc1C(=O)N[C@H]1CCCNC1 [Example 954, 3-amino-N-[(3S)-piperidin-3-yl]-6-(3-{[(3-thienylsulfonyl)amino]methyl}phenyl)pyrazine-2-carboxamide] |  | pIC50 [1]: > 7.30
20 | Nc1ncc(-c2cccc(CNS(=O)(=O)c3cccs3)c2)nc1C(=O)N[C@H]1CCCNC1 [Example 953, 3-amino-N-[(3S)-piperidin-3-yl]-6-(3-{[(2-thienylsulfonyl)amino]methyl}phenyl)pyrazine-2-carboxamide] |  | pIC50 [1]: > 7.30
21 | Nc1ncc(-c2cccc(CN[C@H]3CCc4ccccc43)c2)nc1C(=O)NCC(F)(F)F [Example 537, 3-amino-6-(3-{[(1S)-2,3-dihydro-1H-inden-1-ylamino]methyl}phenyl)-N-(2,2,2-trifluoroethyl)pyrazine-2-carboxamide] | 5.00 to 6.00 | 
22 | CNC(=O)c1nc(-c2ccc(C(=O)NCc3ccc(Cl)cc3Cl)cc2)cnc1N [Example 152, 3-amino-6-[4-({[(2,4-dichlorophenyl)methyl]amino}carbonyl)phenyl]-N-methylpyrazine-2-carboxamide] |  | pIC50: 6.00 to 7.30
23 | Nc1ncc(-c2cccc(NC(=O)c3ccccc3-c3ccc(C(F)(F)F)cc3)c2)nc1C(=O)N[C@H]1CCCNC1 [Example 912, 3-amino-N-[(3S)-piperidin-3-yl]-6-[3-({[4′-(trifluoromethyl)biphenyl-2-yl]carbonyl}amino)phenyl]pyrazine-2-carboxamide] |  | pIC50 [1]: > 7.30
24 | Nc1ncc(-c2cccc(CNS(=O)(=O)c3ccc4cccnc4c3)c2)nc1C(=O)N[C@H]1CCCNC1 [Example 907, 3-amino-N-[(3S)-piperidin-3-yl]-6-(3-{[(quinolin-7-ylsulfonyl)amino]methyl}phenyl)pyrazine-2-carboxamide] |  | pIC50 [1]: 6.00 to 7.30
25 | CNC(=O)c1nc(-c2ccc(C(=O)NCc3ccc(C)cc3)cc2)cnc1N [Example 153, 3-amino-N-methyl-6-[4-({[(4-methylphenyl)methyl]amino}carbonyl)phenyl]pyrazine-2-carboxamide] |  | pIC50: 6.00 to 7.30
26 | CNC(=O)c1nc(-c2ccc(CO)cc2)cnc1N [Example 58, 3-amino-6-[4-(hydroxymethyl)phenyl]-N-methylpyrazine-2-carboxamide] |  | pIC50: 5.00 to 6.00
27 | Nc1ncc(-c2cccc(CNC(=O)c3ccc(OC(F)(F)F)cc3)c2)nc1C(=O)N[C@H]1CCCNC1 [Example 883, 3-amino-N-[(3S)-piperidin-3-yl]-6-(3-{[({4-[(trifluoromethyl)oxy]phenyl}carbonyl)amino]methyl}phenyl)pyrazine-2-carboxamide] |  | pIC50 [1]: > 7.30
28 | C/C(=N\Nc1ccc(S(C)(=O)=O)cc1)c1nc(-c2cccc(C(=O)NCc3ccccc3)c2)cnc1N [Example 630, 3-(5-amino-6-{(1E)-N-[4-(methylsulfonyl)phenyl]ethanehydrazonoyl}pyrazin-2-yl)-N-(phenylmethyl)benzamide] | ≤ 5.00 | 
29 | Nc1ncc(-c2cccc(CN[C@H]3CCc4ccccc43)c2)nc1C(=O)NCCc1c[nH]cn1 [Example 558, 3-amino-6-(3-{[(1S)-2,3-dihydro-1H-inden-1-ylamino]methyl}phenyl)-N-[2-(1H-imidazol-4-yl)ethyl]pyrazine-2-carboxamide] | > 7.30 | 
30 | Nc1ncc(-c2cccc(C(=O)NCc3ccc(OC(F)(F)F)cc3)c2)nc1C(=O)N[C@H]1CCCNC1 [Example 843, 3-amino-N-[(3S)-piperidin-3-yl]-6-(3-{[({4-[(trifluoromethyl)oxy]phenyl}methyl)amino]carbonyl}phenyl)pyrazine-2-carboxamide] |  | pIC50 [1]: > 7.30

The next lines start with results.

Row | pIC50 (Table 11, Chk1 only) | Compound | further results
31 | 6.00 to 7.30 | Nc1ncc(-c2cccc(C3=N[C@@H]4c5ccccc5C[C@@H]4O3)c2)nc1C(=O)NC1CCCNCC1 (stereo partly drawn) [Example 783, 3-amino-N-azepan-4-yl-6-{3-[(3aR,8aS)-8,8a-dihydro-3aH-indeno[1,2-d][1,3]oxazol-2-yl]phenyl}pyrazine-2-carboxamide] | 
32 | 6.00 to 7.30 | CNC(=O)c1nc(-c2cc(C(=O)N[C@@H]3CCNC3)cc(C(=O)N[C@@H]3CCc4ccccc43)c2)cnc1N [Example 797, 5-{5-amino-6-[(methylamino)carbonyl]pyrazin-2-yl}-N-[(1R)-2,3-dihydro-1H-inden-1-yl]-N′-[(3R)-pyrrolidin-3-yl]benzene-1,3-dicarboxamide] | 

From patent US7704995B2 (Exelixis, Inc., priority 2003, dated 2010)
